Source: patent US7879887B2, “α-amino acid derivatives and medicaments containing the same as an active ingredient” (Nissan Chemical Industries, Ltd., priority 2006, dated 2011)
pIC50: −log10 of the molar value.

Legend:
leukemia cell line KG-1a = assay: Cell proliferation inhibitory activity, KG-1a; type: cell-based; conditions: cells counted 4 days later with Cell Counting Kit-8
Experimental: (§1) Evaluations were carried out using colon carcinoma cell line SW620 (Cat. No. CCL-227), lung carcinoma cell line NCI-H460 (Cat. No. HTB-177), prostate cancer cell line DU 145 (Cat. No. HTB-81), breast cancer cell line MDA-MB-231 (Cat. No. HTB26) and leukemia cell line KG-1a (Cat. No. CCL-246.1) purchased from ATCC, pancreatic cancer cell line MIAPaCa-2 (Cat. No. CRL-1420) purchased from Dainippon Pharmaceutical, and ovarian cancer cell line IGROV1 received from the Netherland Cancer Institute. The cells were cultured under the conditions recommended by the supplier for each cell line, or with respect to IGROV1, according to the method described in Cancer Res. 59: 4559-4563, 1999. Cells suspended in media were added to solutions containing the test substances at various concentrations followed by culturing in a 5% CO2 incubator at 37° C. The numbers of cells were counted 4 days later with the Cell Counting Kit-8. IC50 values were calculated by assigning measured values in the case of not containing a test substance to an inhibition of 0%, and assigning measured values in the case of not containing a test substance or cells to an inhibition of 100%.

Aurora A = biological target: T1, Aurora A (Homo sapiens, UniProt O14965); assay: In vitro kinase assay, Aurora A; type: biochemical; conditions: recombinant protein (Upstate)
T1 construct: purchased Upstate Inc. 14-511
T1 sequence (O14965 1-403): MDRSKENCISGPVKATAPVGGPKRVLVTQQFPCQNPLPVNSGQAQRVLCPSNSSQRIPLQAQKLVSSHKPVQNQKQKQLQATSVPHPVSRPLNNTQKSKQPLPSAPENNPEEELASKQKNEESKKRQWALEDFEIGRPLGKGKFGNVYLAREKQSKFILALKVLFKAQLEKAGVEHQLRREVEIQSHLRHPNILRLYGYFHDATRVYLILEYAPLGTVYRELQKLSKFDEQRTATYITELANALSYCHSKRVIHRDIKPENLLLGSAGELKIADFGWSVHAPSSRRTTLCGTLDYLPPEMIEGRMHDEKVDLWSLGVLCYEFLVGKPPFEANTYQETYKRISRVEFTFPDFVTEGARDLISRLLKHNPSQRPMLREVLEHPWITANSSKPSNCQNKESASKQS
Experimental: Inhibitory activity against Aurora A, CDK1/Cyclin B complex, CDK2/Cyclin E complex and CDK3/Cyclin E complex were measured by in vitro kinase assay using recombinant proteins. The assays were carried out by using recombinant proteins (Upstate Inc.) for Aurora A, CDK1/Cyclin B complex, CDK2/Cyclin E complex and CDK3/Cyclin E complex (respective cat. nos. 14-511, 14-450, 14-448 and 14-487), in accordance with the procedure described in the product instructions thereof. The 50% inhibitory concentrations (IC50 values) were calculated by assigning measured values in the case of not containing a test compound to an inhibition of 0%, and assigning measured values in the case of not containing a test compound and enzyme to an inhibition of 100%.

CDK3/Cyclin E complex = biological target: T2, CDK3/Cyclin E complex (Homo sapiens, UniProt Q00526); assay: In vitro kinase assay, CDK3/Cyclin E complex; type: biochemical; conditions: recombinant protein (Upstate); read-out: CDK3/cyclinE IC50
T2 construct: purchased Upstate Inc. 14-487
Experimental: (§2) Inhibitory activity against Aurora A, CDK1/Cyclin B complex, CDK2/Cyclin E complex and CDK3/Cyclin E complex were measured by in vitro kinase assay using recombinant proteins.

[1] = tested on: colon carcinoma cell line SW620; assay: Cell proliferation inhibitory activity, SW620; type: cell-based, human; conditions: cells counted 4 days later with Cell Counting Kit-8
Experimental: as §1

CDK2/Cyclin E complex = CDK2/Cyclin E complex (Homo sapiens, UniProt P24941); assay: In vitro kinase assay, CDK2/Cyclin E complex; type: biochemical; conditions: recombinant protein (Upstate); read-out: CDK2/cyclinE IC50
Experimental: as §2

[2] = tested on: prostate cancer cell line DU 145; assay: Cell proliferation inhibitory activity, DU 145; type: cell-based, human; conditions: cells counted 4 days later with Cell Counting Kit-8
Experimental: as §1

T2 sequence (Q00526 whole entry): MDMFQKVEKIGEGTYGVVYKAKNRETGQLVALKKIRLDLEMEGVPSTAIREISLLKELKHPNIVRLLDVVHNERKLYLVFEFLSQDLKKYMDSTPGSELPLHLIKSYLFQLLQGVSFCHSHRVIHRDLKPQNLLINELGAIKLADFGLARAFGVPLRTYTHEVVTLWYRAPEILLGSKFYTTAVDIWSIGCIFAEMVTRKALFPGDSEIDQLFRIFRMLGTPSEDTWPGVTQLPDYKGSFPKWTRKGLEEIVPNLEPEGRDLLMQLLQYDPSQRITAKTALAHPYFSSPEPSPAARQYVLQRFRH
T2 sequence (P24864 whole entry partner): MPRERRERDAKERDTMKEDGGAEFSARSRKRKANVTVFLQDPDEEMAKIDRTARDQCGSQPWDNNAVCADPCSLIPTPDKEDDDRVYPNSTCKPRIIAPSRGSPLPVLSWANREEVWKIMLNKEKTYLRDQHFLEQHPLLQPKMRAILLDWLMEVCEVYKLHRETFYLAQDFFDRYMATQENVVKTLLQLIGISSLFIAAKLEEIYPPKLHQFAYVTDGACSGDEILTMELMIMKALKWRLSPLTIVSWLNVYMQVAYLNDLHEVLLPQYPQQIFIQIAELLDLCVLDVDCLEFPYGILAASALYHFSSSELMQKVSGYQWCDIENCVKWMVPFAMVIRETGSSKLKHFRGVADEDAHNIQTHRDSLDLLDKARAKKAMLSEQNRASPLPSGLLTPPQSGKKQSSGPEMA

| SMILES | pIC50 (leukemia cell line KG-1a; Homo sapiens, 96 h) | pIC50 (CDK3/Cyclin E complex) | pIC50 ([1]; Homo sapiens, SW-620, 96 h) | pIC50 (CDK2/Cyclin E complex) | other results |
| --- | --- | --- | --- | --- | --- |
| CCOC(=O)c1cc(NC(C)(C)C(=O)Nc2nc3ccc4[nH]ncc4c3s2)ccc1F [compound 49] | > 7.00 |  |  |  | pIC50 (Aurora A): 6.58 |
| CC(C)OC(=O)c1cc(NC2(C(=O)Nc3nc4ccc5[nH]ncc5c4s3)CC2)ccc1Cl [compound 123] |  | 6.71 | 5.64 | 6.85 |  |
| O=C(CNc1ccccc1)Nc1nc2ccc3[nH]nc(Cl)c3c2s1 [compound 108] |  |  |  |  | pIC50 (leukemia cell line KG-1a): 6.52 |
| CCC(=O)Nc1cc(NC(C(=O)Nc2nc3c(C(F)(F)F)cc4[nH]ncc4c3s2)c2ccccc2)ccc1Cl (stereo not drawn) [compound 31] |  | 6.45 | 5.57 | 6.43 |  |
| CC(C)(Nc1cccc(F)c1)C(=O)Nc1nc2c(C(F)(F)F)cc3[nH]ncc3c2s1 [compound 67] |  | 6.43 | 5.52 |  |  |
| CC(C)(Nc1cccc(C(=O)O)c1)C(=O)Nc1nc2c(C(F)(F)F)cc3[nH]ncc3c2s1 [compound 66] |  | 6.48 |  |  | pIC50 (Aurora A): 6.53 |
| COc1cccc(NC(CC(C)C)C(=O)Nc2nc3ccc4[nH]ncc4c3s2)c1 (stereo not drawn) [compound 26] |  |  |  |  | pIC50 (leukemia cell line KG-1a): 6.70 |
| COc1cccc(NC(C)(C)C(=O)Nc2nc3ccc4[nH]ncc4c3s2)c1 [compound 34] | 7.00 |  |  |  | pIC50 (Aurora A): 6.48 |
| COc1ccc(NC(C)(C)C(=O)Nc2nc3ccc4[nH]ncc4c3s2)cc1 [compound 40] | 6.70 |  | 5.64 | 6.47 |  |
| NC(=O)CC(Nc1cccc(O)c1)C(=O)Nc1nc2ccc3[nH]ncc3c2s1 (stereo not drawn) [compound 109] | > 7.00 | 7.26 |  | 7.25 | pIC50 (Aurora A): 6.44 |
| O=C(CNc1ccc2[nH]ncc2c1)Nc1nc2ccc3[nH]ncc3c2s1 [compound 13] |  |  |  | 6.38 |  |
| CC(C)(Nc1ccc(Cl)cc1)C(=O)Nc1nc2c(C(F)(F)F)cc3[nH]ncc3c2s1 [compound 59] |  |  |  |  | pIC50 [2]: 5.38; pIC50 [1]: 5.66 |
| CON(C)C(=O)c1cc(Cl)ccc1NC(C)(C)C(=O)Nc1nc2c(C(F)(F)F)cc3[nH]ncc3c2s1 [compound 100] | 6.52 | 6.46 | 5.48 | 6.41 |  |
| COc1cccc(NC(C)C(=O)Nc2nc3ccc4[nH]ncc4c3s2)c1 (stereo not drawn) [compound 22] | > 7.00 |  | 5.77 |  | pIC50 (Aurora A): 6.41 |
| O=C(CNc1cccc(Cl)c1)Nc1nc2ccc3[nH]ncc3c2s1 [compound 8] |  |  |  | 6.77 |  |
| COc1cc(NC(C)(C)C(=O)Nc2nc3ccc4[nH]ncc4c3s2)ccc1Cl [compound 43] | 6.70 |  |  |  | pIC50 (Aurora A): 6.46 |
| CC(=O)Nc1cc(NC(C(=O)Nc2nc3ccc4[nH]ncc4c3s2)c2ccccc2)ccc1Cl (stereo not drawn) [compound 131] |  | 6.37 | 5.52 | 6.56 | pIC50 (Aurora A): 7.03 |
| CC(C)(Nc1ccc(F)c(F)c1)C(=O)Nc1nc2c(C(F)(F)F)cc3[nH]ncc3c2s1 [compound 72] |  | 6.74 | 5.62 | 6.47 | pIC50 ([2]; Homo sapiens, 96 h): 5.46 |
| CN(C)C(=O)c1cc(NC2(C(=O)Nc3nc4ccc5[nH]ncc5c4s3)CC2)ccc1Cl [compound 124] |  |  |  |  | pIC50 (leukemia cell line KG-1a): 7.00 |
| CC(C)(Nc1cccc(F)c1)C(=O)Nc1nc2ccc3[nH]ncc3c2s1 [compound 42] | > 7.00 |  | 5.66 | 6.36 |  |
| O=C(CNc1cccc(O)c1)Nc1nc2ccc3[nH]ncc3c2s1 [compound 2] | > 7.00 | 6.89 | 5.92 | 7.09 | pIC50 (Aurora A): 6.83 |
| Cc1ccc(NC(C)(C)C(=O)Nc2nc3ccc4[nH]ncc4c3s2)cc1 [compound 39] | > 7.00 | 6.44 | 5.70 | 6.84 |  |

| SMILES | pIC50 (leukemia cell line KG-1a; Homo sapiens, 96 h) | pIC50 (CDK3/Cyclin E complex) | pIC50 ([1]; Homo sapiens, SW-620, 96 h) | pIC50 (CDK2/Cyclin E complex) | other results |
| --- | --- | --- | --- | --- | --- |
| O=C(CNc1ccccc1)Nc1nc2c(C(F)(F)F)cc3[nH]ncc3c2s1 [compound 18] |  | 6.42 |  |  |  |
| CC(C)(Nc1cccc(NS(C)(=O)=O)c1)C(=O)Nc1nc2c(C(F)(F)F)cc3[nH]ncc3c2s1 [compound 79] |  | 6.58 | 5.62 | 6.77 | pIC50 ([2]; Homo sapiens, 96 h): 5.51 |
| COc1cccc(NC(CC(N)=O)C(=O)Nc2nc3ccc4[nH]ncc4c3s2)c1 (stereo not drawn) [compound 110] |  | 6.41 |  | 6.49 |  |
| COc1cccc(NC2(C(=O)Nc3nc4ccc5[nH]ncc5c4s3)CC2)c1 [compound 119] |  |  |  |  | pIC50 (leukemia cell line KG-1a): 6.52; pIC50 [1]: 5.59 |
| CS(=O)(=O)Nc1cccc(NCC(=O)Nc2nc3ccc4[nH]ncc4c3s2)c1 [compound 14] | 6.70 | 6.39 |  | 6.65 |  |
| O=C(CNc1ccc2cn[nH]c2c1)Nc1nc2ccc3[nH]ncc3c2s1 [compound 15] |  | 7.06 |  | 7.40 |  |
| O=C(CNc1ccccc1)Nc1nc2c(F)cc3[nH]ncc3c2s1 [compound 20] |  |  |  |  | pIC50 (leukemia cell line KG-1a): 7.00; pIC50 [1]: 5.89 |
| O=C(Nc1nc2ccc3[nH]ncc3c2s1)C(Nc1cccc(O)c1)c1ccccc1 (stereo not drawn) [compound 27] | 7.00 |  |  |  | pIC50 (Aurora A): 6.94 |
| COC(=O)c1cccc(NCC(=O)Nc2nc3ccc4[nH]ncc4c3s2)c1 [compound 134] | > 7.00 | 6.32 | 5.72 | 6.47 |  |
| CCOC(=O)c1cc(NC(C)(C)C(=O)Nc2nc3ccc4[nH]ncc4c3s2)ccc1Cl [compound 44] | > 7.00 | 6.80 |  | 6.80 | pIC50 ([2]; Homo sapiens, 96 h): 5.35; pIC50 (Aurora A): 6.97 |
| CC(C)(Nc1ccc2[nH]c(=O)[nH]c2c1)C(=O)Nc1nc2c(C(F)(F)F)cc3[nH]ncc3c2s1 [compound 83] |  |  |  | 6.46 |  |
| CC(C)(Nc1ccc(Cl)c(NC(=O)OCCO)c1)C(=O)Nc1nc2c(C(F)(F)F)cc3[nH]ncc3c2s1 [compound 89] |  | 6.98 | 5.66 | 6.65 | pIC50 ([2]; Homo sapiens, 96 h): 5.35 |
| CC(C)(Nc1ccc(Cl)c(NC(=O)C2CC2)c1)C(=O)Nc1nc2c(C(F)(F)F)cc3[nH]ncc3c2s1 [compound 80] |  | 6.78 | 5.64 | 6.81 | pIC50 ([2]; Homo sapiens, 96 h): 5.39 |
| CC(C)(Nc1ccc(Cl)cc1C(=O)NCC(N)=O)C(=O)Nc1nc2c(C(F)(F)F)cc3[nH]ncc3c2s1 [compound 88] |  | 6.41 | 5.54 | 6.35 |  |
| O=C(Nc1nc2ccc3[nH]ncc3c2s1)C1CCCN1c1ccc(Cl)cc1 (stereo not drawn) [compound 111] | 6.30 | 6.58 | 5.64 | 7.00 |  |
| CC(C)(Nc1ccc(F)cc1)C(=O)Nc1nc2c(C(F)(F)F)cc3[nH]ncc3c2s1 [compound 74] |  | 6.79 | 5.57 | 6.52 | pIC50 ([2]; Homo sapiens, 96 h): 5.41 |
| COc1cc(NCC(=O)Nc2nc3ccc4[nH]ncc4c3s2)ccc1Cl [compound 4] | 7.00 | 6.33 | 5.70 | 6.47 |  |
| Cc1cc2[nH]ncc2c2sc(NC(=O)CNc3ccccc3)nc12 [compound 19] |  | 6.62 | 5.54 | 6.72 |  |
| O=C(CNc1cc(F)cc(F)c1)Nc1nc2ccc3[nH]ncc3c2s1 [compound 5] |  |  |  |  | pIC50 (leukemia cell line KG-1a): > 7.00 |
| O=C(CNc1ccc(F)cc1)Nc1nc2ccc3[nH]ncc3c2s1 [compound 105] | 7.00 | 6.59 | 5.82 | 6.69 |  |
| CC(=O)Nc1cccc(NCC(=O)Nc2nc3ccc4[nH]ncc4c3s2)c1 [compound 106] | > 7.00 | 6.82 |  | 7.26 |  |
| CC(C)OC(=O)c1cc(NC(C)(C)C(=O)Nc2nc3ccc4[nH]ncc4c3s2)ccc1Cl [compound 47] | > 7.00 | 6.46 |  | 6.59 | pIC50 (Aurora A): 6.83 |
